{
  "source": "patent US20190142775A1",
  "about": "“TREATING ACTIVATED DERMAL CONDITIONS WITH AGENTS THAT TARGET ENERGY METABOLISM” (Sciaderm, Inc., priority 2016, published 2019)",
  "key": {"psoriatic plaques": {"tested_on": "psoriatic plaques", "assay": "Open label case report: topical 3-BP formulation applied to psoriatic plaques of one subject", "assay_type": "in vivo, human", "experimental": "The present Example describes use of an exemplary topical formulation of 3-BP in the treatment of psoriasis. The goal of this study is to reduce the hyper-proliferation of skin cells and deactivate the inflammatory response associated with the condition. Therefore, treatment was planned in a sequential dose escalating fashion. Dose escalation is accomplished by a step wise increase in formulation strength and/or application volume and frequency. Daily or twice daily doses were administered, with an initial strength ranging from about 0.001% to about 0.05% and administered doses were increased incrementally to a final strength ranging from about 5% to about 25% of the total weight of the formulation. As a first objective, the maximum tolerated dose was established, which was indicated by the observation of local irritation in the area of application. In some cases, once local irritation was observed, dosing was then reduced by approximately factor of four and continued or readjusted as appropriate to assess efficacy.\nAn exemplary topical formulation of 3-BP was prepared as described below: […]\nAn exemplary 3-Bromo-Pyruvic Acid (“BPA”) formulation was compounded as a lotion of low viscosity, filled dropper bottles (e.g., a 3 mL dropper bottle).\nCompounding: 3-Bromo-Pyruvic Acid, BPA, CAS#1113-59-3, was obtained from AK Scientific, Inc., Union City, Calif. and stored at frozen conditions. Given the known instability of BPA at higher pH (e.g., physiologic pH) the final formulation consisted of 75% acetic acid (5% w/w) and 25% compounding base with a pH of approximately 3.0. During formulation, all ingredients were chilled to +5° C., and kept on ice for the entire procedure.\nStock solution A was prepared by dissolving the appropriate amount of solid bromopyruvic acid, BPA, in 5% acetic acid at a concentration of 2% to 10% (w/w); depending on the desired final concentration, intermediate dilutions of for example 1:5, using 5% acetic acid, may have been prepared as well.\nStock solution B consisted of a commercially available compounding base, Vanicream™, NDC 45334-300-16, that was diluted 1:1 in 5% acetic acid. The final formulation was comprised of blending BPA solution (Stock A) with compounding base (Stock B) at a ratio of 1:1. The resulting formulation is of low viscosity and filled in 3 ml ophthalmic dropper bottles.\nFinal concentration of BPA was between 0.15 mM (0.0025% w/w) and 300 mM (5.0% w/w). To preserve stability of the active ingredient, the formulation was stored frozen at −18° C. until use. Once treatment application commenced, bottles were kept at refrigerated conditions (+5° C.) for up to 1 week and then replaced with freshly made product.\nThis research was conducted as an out-patient, open label, intra-individually controlled repeated measurement experiment involving up to 10 subjects. To minimize bias, subjects were treated at selected target plaques. Neighboring plaques serve as an intra-individual control.\nAn exemplary 3-BP formulation was self-administered as one or two drops per application, depending on size of the treatment area. Care was taken for drops to fall freely from the dropper tip to ensure a consistent dose volume of ≈25-50 μl/drop. Most treatment applications were done in the morning and photographs were taken mostly in the evening to allow possible moisturizing effects of the compounding base to wear off.\nWithin each treatment area, the severity is estimated by three clinical signs: erythema (redness), induration (thickness) and desquamation (scaling). Efficacy is assessed using the Investigators Global Assessment scale and the Psoriasis Area Severity Index (PASI), which are summarized in Tables 1 and 2 below. In addition, target lesions are photographed and adjudicated by a blinded independent investigator. These efficacy variables were assessed at every visit.\nSafety is assessed by collection of research events and review of concomitant treatments. Clinical adverse event reporting is conducted at each visit. […]"}, "[1]": {"conditions": "at higher pH (e.g., physiologic pH); cited from earlier work"}, "[2]": {"conditions": "Plaque #3, right forearm, one drop per day, 1.75 mM, one week"}, "[3]": {"conditions": "Plaque #4, left forearm, 0.15 mM, QD, 2.5 weeks"}, "[4]": {"conditions": "Plaque #5, left elbow, 1 drop per day, 0.15 mM, 10 days"}},
  "data": [
    {"smiles": "O=C(O)C(=O)CBr", "note": "[3-BP, 3-bromopyruvate]", "values": [
      {"measurement": "Adverse effects at a strength of 0.5 mM", "setting": "psoriatic plaques; 0.5 mM, summary of case report", "result": "without any observable adverse effects"},
      {"measurement": "Efficacy at a strength of 0.5 mM", "setting": "psoriatic plaques; 0.5 mM, summary of case report", "result": "highly effective"},
      {"measurement": "Plaque status 20 weeks after last treatment application", "setting": "psoriatic plaques; Plaque 1, left forearm, 26 weeks after baseline (FIG. 1)", "result": "complete remission"},
      {"measurement": "Local adverse effects", "setting": "psoriatic plaques; Plaque 1, left forearm, BID, 0.1% to 5.0% (6-300 mM), after approximately one week of treatment", "result": "local irritation, oozing, and crusting"},
      {"measurement": "Treatment effect on psoriatic plaque", "setting": "psoriatic plaques; Plaque 1, left forearm, one drop twice per day, strength escalated 0.1% to 5.0% (6-300 mM) in first week, later reduced to QD and 0.1%, stopped after 6 weeks", "result": "completely resolved"},
      {"measurement": "Plaque status 20 weeks after last treatment application", "setting": "psoriatic plaques; Plaque #2, right forearm", "result": "complete remission"},
      {"measurement": "Duration of complete remission after last treatment application", "setting": "psoriatic plaques; Plaque #2, right forearm, as of the date of the last visit", "result": "approximately 8 months"},
      {"measurement": "Tolerability / local adverse effects", "setting": "psoriatic plaques; Plaque #2, right forearm, once daily 0.1% (6 mM) one week, then 0.03% (1.75 mM) two weeks", "result": "well tolerated and only some mild local irritation"},
      {"measurement": "Treatment effect on psoriatic plaque", "setting": "psoriatic plaques; Plaque #2, right forearm, once daily 0.1% (6 mM) one week, then 0.03% (1.75 mM) two weeks, Day 21", "result": "mostly resolved"},
      {"measurement": "Tolerability", "setting": "psoriatic plaques; Plaque #3, right forearm, 0.5 mM, once per day", "result": "well tolerated"},
      {"measurement": "Treatment effect on severity of psoriasis plaques", "setting": "psoriatic plaques; Plaque #3, right forearm, 1 mM QD 10 days, then 0.5 mM once per day", "result": "Significant improvement"},
      {"measurement": "Local adverse effects", "setting": "psoriatic plaques; Plaque #3, right forearm, 1 mM, QD, 10 days", "result": "minor local irritation"},
      {"measurement": "Plaque status after treatment was stopped", "setting": "psoriatic plaques; Plaque #3, right forearm, after 1.75 mM QD and 6 mM every other day", "result": "psoriatic skin afflictions remained"},
      {"measurement": "Local adverse effects", "setting": "psoriatic plaques; [2]", "result": "itching and pin-head sized crusting"},
      {"measurement": "Treatment effect on psoriatic plaque", "setting": "psoriatic plaques; [2]", "result": "improved"},
      {"measurement": "Local adverse effects", "setting": "psoriatic plaques; Plaque #3, right forearm, resumed at 6 mM every other day after one week pause", "result": "local irritation became more pronounced"},
      {"measurement": "Tolerability", "setting": "psoriatic plaques; [3]", "result": "well tolerated"},
      {"measurement": "Treatment effect on psoriatic plaque", "setting": "psoriatic plaques; [3]", "result": "only marginal efficacy"},
      {"measurement": "Time plaque remained resolved after the last application", "setting": "psoriatic plaques; Plaque #4, left forearm, 0.5 mM", "result": "more than 6 weeks"},
      {"measurement": "Local adverse effects", "setting": "psoriatic plaques; Plaque #4, left forearm, 0.5 mM, Day 18 to 43", "result": "did not induce any local irritancy or other unwanted effects"},
      {"measurement": "Treatment effect on psoriatic plaque", "setting": "psoriatic plaques; Plaque #4, left forearm, 0.5 mM, Day 18 to 43, continued treatment", "result": "completely resolved"},
      {"measurement": "Treatment effect on psoriatic plaque", "setting": "psoriatic plaques; Plaque #5, left elbow, 0.5 mM, 1 drop QD Days 10-19, 2 drops QD from Day 20, Day 47 (FIG. 4), versus untreated right elbow", "result": "completely clear of psoriasis"},
      {"measurement": "Tolerability", "setting": "psoriatic plaques; [4]", "result": "well tolerated"},
      {"measurement": "Treatment effect on psoriatic plaque", "setting": "psoriatic plaques; [4]", "result": "only marginal improvement"},
      {"measurement": "Response of all treated plaques", "setting": "psoriatic plaques; five different or recurring psoriasis plaques, over a period of three to six weeks", "result": "responded favorably or completely resolved"},
      {"measurement": "Concentration inducing local irritation / at which adverse events started to emerge", "setting": "psoriatic plaques; local irritation, including oozing and crusting, summary of case report", "result": "≥ 1000", "unit": "µM"},
      {"measurement": "Outcome of local adverse effects after cessation of treatment", "setting": "psoriatic plaques; within a few weeks after treatment was stopped", "result": "resolved without sequelae"},
      {"measurement": "Stability of BPA", "setting": "[1]", "result": "instability"}
    ]}
  ]
}
